Measurements taken from PubChem BioAssay AID256 (DTP/NCI, 2004).
Where “and” joins values, the source holds several entries; their conditions need not be identical. Equal values may be shown once. Inconclusive results and toxic doses are left out. How the source made its calls: active means survival T/C of 150% or more; inactive means T/C below 125% in these data.

Tested on: CD2F1 mice, L1210 leukemia ip, survival T/C
Experiment: NCI In Vivo Anticancer Drug Screen. Data for tumor model L1210 Leukemia (intraperitoneal) in CD2F1 (CDF1) mice
Conditions: higher = longer survival
How it was run: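 Tumor-bearing mice (transplanted tumor) were split into treated and vehicle control groups, and the measured endpoint of each treated group was divided by that of its vehicle controls.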

[1] = endpoint: mean survival time, dose: 100.0 mg/kg/injection, schedule: Q01DX001 (ip), vehicle: saline with Tween-80
[2] = endpoint: mean survival time, dose: 200.0 mg/kg/injection, schedule: Q01DX001 (ip), vehicle: saline with Tween-80
[3] = endpoint: mean survival time, dose: 400.0 mg/kg/injection, schedule: Q01DX001 (ip), vehicle: saline with Tween-80
[4] = endpoint: mean survival time, dose: 100.0 mg/kg/injection, schedule: Q04DX003 (ip), vehicle: saline with Tween-80
[5] = endpoint: mean survival time, dose: 200.0 mg/kg/injection, schedule: Q04DX003 (ip), vehicle: saline with Tween-80
[6] = endpoint: mean survival time, dose: 400.0 mg/kg/injection, schedule: Q04DX003 (ip), vehicle: saline with Tween-80
[7] = endpoint: mean survival time, dose: 50.0 mg/kg/injection, schedule: Q01DX009 (ip), vehicle: saline with Tween-80
[8] = endpoint: mean survival time, dose: 100.0 mg/kg/injection, schedule: Q01DX009 (ip), vehicle: saline with Tween-80
[9] = endpoint: mean survival time, dose: 200.0 mg/kg/injection, schedule: Q01DX009 (ip), vehicle: saline with Tween-80
[10] = endpoint: mean survival time, dose: 400.0 mg/kg/injection, schedule: Q01DX009 (ip), vehicle: saline with Tween-80
[11] = endpoint: mean survival time, dose: 100.0 mg/kg/injection, schedule: Q01DX009 (ip), vehicle: saline sonified
[12] = endpoint: mean survival time, dose: 200.0 mg/kg/injection, schedule: Q01DX009 (ip), vehicle: saline sonified
[13] = endpoint: mean survival time, dose: 200.0 mg/kg/injection, schedule: Q01DX001 (ip), vehicle: saline
[14] = endpoint: mean survival time, dose: 12.5 mg/kg/injection, schedule: Q01DX009 (ip), vehicle: Klucel (hydroxypropylcellulose) (HPC)
[15] = endpoint: mean survival time, dose: 25.0 mg/kg/injection, schedule: Q01DX009 (ip), vehicle: Klucel (hydroxypropylcellulose) (HPC)
[16] = endpoint: mean survival time, dose: 50.0 mg/kg/injection, schedule: Q01DX009 (ip), vehicle: Klucel (hydroxypropylcellulose) (HPC)
[17] = endpoint: mean survival time, dose: 50.0 mg/kg/injection, schedule: Q04DX003 (ip), vehicle: saline
[18] = endpoint: mean survival time, dose: 100.0 mg/kg/injection, schedule: Q01DX009 (ip), vehicle: saline
[19] = endpoint: mean survival time, dose: 100.0 mg/kg/injection, schedule: Q04DX003 (ip), vehicle: saline
[20] = endpoint: mean survival time, dose: 200.0 mg/kg/injection, schedule: Q01DX009 (ip), vehicle: saline

Measured: T/C

CN(/N=C/c1ccc([N+](=O)[O-])cc1)c1ccccc1
inactive: [1] 100 % of control | [2] 106 % of control | [3] 91 % of control

CN(C)S(=O)(=O)C=C(c1ccccc1)c1ccccc1
inactive: [4] 107 % of control | [5] 96 % of control | [6] 94 % of control

CC(=O)N/N=C\C1=CCC=C(Br)S1
inactive: [7] 107 % of control | [1] 93 % of control | [8] 107 % of control | [2] 102 % of control | [9] 116 % of control

CCCCOC(=O)c1cccc([N+](=O)[O-])c1
inactive: [7] 93 % of control | [8] 104 % of control | [9] 105 % of control

Cc1cc(C)c(C)cc1C
inactive: [8] 92 % of control | [4] 96 % of control | [9] 96 % of control | [5] 100 % of control | [10] 88 % of control | [6] 94 % of control

CC(=NCC(C)N=C(C)c1ccccc1O)c1ccccc1O.[Ni] (configuration not stated)
inactive: endpoint: mean survival time, dose: 50.0 mg/kg/injection, schedule: Q04DX002 (ip), vehicle: saline with Tween-80 109 % of control | endpoint: mean survival time, dose: 100.0 mg/kg/injection, schedule: Q04DX002 (ip), vehicle: saline with Tween-80 97 % of control | endpoint: mean survival time, dose: 200.0 mg/kg/injection, schedule: Q04DX002 (ip), vehicle: saline with Tween-80 97 % of control | endpoint: mean survival time, dose: 400.0 mg/kg/injection, schedule: Q04DX002 (ip), vehicle: saline with Tween-80 97 % of control

CC(=O)Nc1ccc(S(=O)(=O)N(CCO)CCO)cc1
inactive: [1] 100 % of control | [11] 100 % of control | [2] 102 % of control | [12] 95 % of control | [3] 98 % of control | endpoint: mean survival time, dose: 400.0 mg/kg/injection, schedule: Q01DX009 (ip), vehicle: saline sonified 97 % of control

Cc1nc(C)c(Cc2ccccc2O)c(=O)[nH]1
inactive: [13] 103 % of control

CC1(C)N=C(N)N=C(N)N1c1cccc(C(C#N)CCCc2ccccc2)c1 (configuration not stated)
inactive: [14] 104 % of control | [15] 104 % of control | [16] 88 % of control

Cc1cc2nc3ccc(=[N+](C)C)cc-3sc2cc1N
inactive: endpoint: mean survival time, dose: 25.0 mg/kg/injection, schedule: Q04DX003 (ip), vehicle: saline 109 % of control | [17] 102 % of control

N\C([S-])=N/N=C\C(=N/N=C(\N)[S-])C(O)C(O)C(O)CO.[Fe+2] (configuration not stated)
inactive: [11] 91 % of control | [12] 92 % of control

COc1ccc(CCC(=O)O)cc1OC
inactive: [8] 96 % of control | [4] 98 % of control | [9] 97 % of control | [5] 96 % of control | [10] 92 % of control | [6] 104 % of control

Cc1ccc(S(=O)(=O)SCC(=O)c2ccc([N+](=O)[O-])cc2)cc1
inactive: endpoint: mean survival time, dose: 100.0 mg/kg/injection, schedule: Q01DX001 (ip), vehicle: saline 94 % of control | [11] 96 % of control | [13] 92 % of control | [12] 97 % of control | endpoint: mean survival time, dose: 400.0 mg/kg/injection, schedule: Q01DX001 (ip), vehicle: saline 92 % of control

C=C(C)C1CCC2(C(=O)OC)CCC3(C)C(CCC4C5(C)CCC(=O)C(C)(C)C5CCC43C)C12 (configuration not stated)
inactive: endpoint: mean survival time, dose: 100.0 mg/kg/injection, schedule: Q01DX001 (ip), vehicle: Klucel (hydroxypropylcellulose) (HPC) 96 % of control | endpoint: mean survival time, dose: 200.0 mg/kg/injection, schedule: Q01DX001 (ip), vehicle: Klucel (hydroxypropylcellulose) (HPC) 91 % of control | endpoint: mean survival time, dose: 400.0 mg/kg/injection, schedule: Q01DX001 (ip), vehicle: Klucel (hydroxypropylcellulose) (HPC) 94 % of control

C[Si](C)(C)CS(=O)[O-].[C-]#[O+].[C-]#[O+].[Fe+6].[c-]1[c-][c-][cH-][c-]1
inactive: endpoint: mean survival time, dose: 12.5 mg/kg/injection, schedule: Q04DX002 (ip), vehicle: saline 105 % of control | endpoint: mean survival time, dose: 25.0 mg/kg/injection, schedule: Q04DX002 (ip), vehicle: saline 94 % of control | endpoint: mean survival time, dose: 50.0 mg/kg/injection, schedule: Q04DX002 (ip), vehicle: saline 87 % of control

NC(Cc1cccc(NP(=S)(N2CC2)N2CC2)c1)C(=O)O (configuration not stated)
inactive: [18] 119 % of control | [19] 113 % of control | [20] 100 % of control

C#CC(C)(C)CC(=O)O
inactive: [18] 102 % of control | [20] 101 % of control | endpoint: mean survival time, dose: 400.0 mg/kg/injection, schedule: Q01DX009 (ip), vehicle: saline 98 % of control

O=C(O)C1CCCN1C(=O)c1ccccc1 (configuration not stated)
inactive: [4] 103 % of control | [5] 93 % of control | [6] 98 % of control

CN(Cc1ccc(C(=O)NC(CCC(=O)O)C(=O)O)cc1)Cc1cnc2nc(N)nc(N)c2n1 (configuration not stated)
inactive: endpoint: mean survival time, dose: 1.0 mg/kg/injection, schedule: Q01DX009 (ip), vehicle: water 96 % of control | endpoint: mean survival time, dose: 10.0 mg/kg/injection, schedule: Q01DX009 (ip), vehicle: water 114 % of control

O=C(Nc1c[nH]c(=O)[nH]c1=O)C(Cl)Cl
inactive: endpoint: mean survival time, dose: 100.0 mg/kg/injection, schedule: Q04DX003 (ip), vehicle: other 109 % of control | endpoint: mean survival time, dose: 200.0 mg/kg/injection, schedule: Q04DX003 (ip), vehicle: other 94 % of control

CCC12C[N+]3([O-])CCc4c([nH]c5ccccc45)C(C(=O)OC)(c4cc5c(cc4OC)N(C)C4C(O)(C(=O)OC)C(OC(C)=O)C6(CC)C=CCN7CCC54C76)CC(C3)C1O2 (configuration not stated)
inactive: endpoint: median survival time, dose: 0.62 mg/kg/injection, schedule: Q01DX009 (ip), vehicle: water 98 % of control | endpoint: median survival time, dose: 1.25 mg/kg/injection, schedule: Q01DX009 (ip), vehicle: water 103 % of control | endpoint: median survival time, dose: 2.5 mg/kg/injection, schedule: Q01DX009 (ip), vehicle: water 98 % of control and 105 % of control and 107 % of control | endpoint: median survival time, dose: 5.0 mg/kg/injection, schedule: Q01DX009 (ip), vehicle: water 101 % of control and 105 % of control and 110 % of control | endpoint: median survival time, dose: 10.0 mg/kg/injection, schedule: Q01DX009 (ip), vehicle: water 115 % of control and 117 % of control | endpoint: median survival time, dose: 20.0 mg/kg/injection, schedule: Q01DX009 (ip), vehicle: water 117 % of control and 119 % of control and 112 % of control

COc1cc([N+](=O)[O-])ccc1P(=O)(O)O
inactive: [17] 101 % of control | [19] 97 % of control | endpoint: mean survival time, dose: 200.0 mg/kg/injection, schedule: Q04DX003 (ip), vehicle: saline 91 % of control

CCCCOB=O
inactive: [4] 96 % of control | [5] 98 % of control | [6] 95 % of control

CC1(C)N=C(N)N=C(N)N1c1ccc(OCCCCNC(=O)c2cccc(S(=O)(=O)F)c2)c(Cl)c1
inactive: endpoint: mean survival time, dose: 5.0 mg/kg/injection, schedule: Q01DX001 (ip), vehicle: saline with Tween-80 105 % of control | endpoint: mean survival time, dose: 5.0 mg/kg/injection, schedule: Q01DX009 (ip), vehicle: saline 102 % of control | endpoint: mean survival time, dose: 10.0 mg/kg/injection, schedule: Q01DX001 (ip), vehicle: saline with Tween-80 95 % of control | endpoint: mean survival time, dose: 10.0 mg/kg/injection, schedule: Q01DX009 (ip), vehicle: saline 98 % of control | endpoint: mean survival time, dose: 20.0 mg/kg/injection, schedule: Q01DX001 (ip), vehicle: saline with Tween-80 94 % of control | endpoint: mean survival time, dose: 20.0 mg/kg/injection, schedule: Q01DX009 (ip), vehicle: saline 98 % of control

CC12CCC(=O)C=C1CCC1C2C(=O)CC2(C)C1CCC2(O)C(=O)Cn1c(=O)[nH]cc(F)c1=O (configuration not stated)
inactive: endpoint: mean survival time, dose: 12.5 mg/kg/injection, schedule: Q04DX003 (ip), vehicle: Klucel (hydroxypropylcellulose) (HPC) 103 % of control | endpoint: mean survival time, dose: 25.0 mg/kg/injection, schedule: Q04DX003 (ip), vehicle: Klucel (hydroxypropylcellulose) (HPC) 97 % of control | endpoint: mean survival time, dose: 50.0 mg/kg/injection, schedule: Q04DX003 (ip), vehicle: Klucel (hydroxypropylcellulose) (HPC) 100 % of control | endpoint: mean survival time, dose: 100.0 mg/kg/injection, schedule: Q04DX003 (ip), vehicle: Klucel (hydroxypropylcellulose) (HPC) 97 % of control | endpoint: mean survival time, dose: 200.0 mg/kg/injection, schedule: Q04DX003 (ip), vehicle: Klucel (hydroxypropylcellulose) (HPC) 97 % of control

CC(=O)OCC1OC(OC2=C(CC=C(C)C)C(=O)c3ccccc3C2=O)C(OC(C)=O)C(OC(C)=O)C1OC(C)=O (configuration not stated)
inactive: endpoint: mean survival time, dose: 6.25 mg/kg/injection, schedule: Q01DX009 (ip), vehicle: Klucel (hydroxypropylcellulose) (HPC) 108 % of control | [14] 101 % of control and 108 % of control | [15] 101 % of control and 108 % of control | [16] 101 % of control | endpoint: mean survival time, dose: 100.0 mg/kg/injection, schedule: Q01DX009 (ip), vehicle: Klucel (hydroxypropylcellulose) (HPC) 92 % of control and 102 % of control | endpoint: mean survival time, dose: 200.0 mg/kg/injection, schedule: Q01DX009 (ip), vehicle: Klucel (hydroxypropylcellulose) (HPC) 89 % of control and 96 % of control
